The text below walks through data of patent publication US20060210528A1, “Therapy for tropical diseases” (Aspire Biotech, Inc., priority 2001, published 2006).

Structures are written as SMILES.

The series has as its system plantar warts. Description: Treatment of plantar warts on a patient's feet with an in situ polymeric film versus freezing. The format is in vivo, human. As for the experimental part:
The following examples illustrate how the methods of this invention could be used.
A patient presents to a dermatologist with two similar plantar warts on the soles of their left and right feet. The wart on the right foot is treated by freezing with liquid nitrogen.

Turning to `N#N` [liquid nitrogen], the “pain on treated foot” value (plantar wart on sole of foot) was “makes walking on the foot painful for several days”. For the same molecule, the “time until wart resolves” value (plantar wart on sole of foot, film re-applied every 3-4 days) turned out to be 3 weeks. The “return of wart after resolution” value (plantar wart, film treatment continued two weeks after resolution) is listed as “has returned after two months”.
